For data set [1] the following is noted: Gower A. J. et al., Eur. J. Pharmacol. (1992), 222, 193-203; cited from earlier work.

Structures are written as SMILES.

As to `COCc1nn2c(CN3CC(CC(C)(F)F)CC3=O)c(C(F)(F)F)nc2s1` (single isomer, unassigned; (+)) [Compound 2, (+)-4-(2,2-difluoropropyl)-1-{[2-(methoxymethyl)-6-(trifluoromethyl)imidazo[2,1-b][1,3,4]thiadiazol-5-yl]methyl}pyrrolidin-2-one], the melting point came out at 70 °C.

The molecule `COCc1nn2c(CN3CC(CC(F)(F)Cl)CC3=O)c(C(F)F)nc2s1` (single isomer, unassigned; (+)) [Compound 23, (+)-4-(2-chloro-2,2-difluoroethyl)-1-{[6-(difluoromethyl)-2-(methoxymethyl)imidazo[2,1-b][1,3,4]thiadiazol-5-yl]methyl}pyrrolidin-2-one] registered a melting point of 73 °C.

As to `COCc1nn2c(CN3CC(CCC(F)(F)F)CC3=O)c(Cl)nc2s1` (single isomer, unassigned; (+)) [Compound 27, (+)-1-{[6-chloro-2-(methoxymethyl)imidazo[2,1-b][1,3,4]thiadiazol-5-yl]methyl}-4-(3,3,3-trifluoropropyl)pyrrolidin-2-one], the melting point was 60 °C.

Consider `COCc1nn2c(CN3CC(CC(C)(F)F)CC3=O)c(C(F)(F)F)nc2s1` (single isomer, unassigned; (-)) [Compound 3, (−)-4-(2,2-difluoropropyl)-1-{[2-(methoxymethyl)-6-(trifluoromethyl)imidazo[2,1-b][1,3,4]thiadiazol-5-yl]methyl}pyrrolidin-2-one], for which the melting point amounted to 67 °C.

With `CC[C@H](C(N)=O)N1CCCC1=O` [(R)-α-ethyl-2-oxo-1-pyrrolidine acetamide], the “activity in the treatment of epilepsy (seizure control)” value in data set [1] is “completely lacks activity”.

For `O=C1C[C@H](CC(F)(F)Cl)CN1Cc1c(C(F)(F)F)nc2sc(CO)nn12` [Compound 8, (4R)-4-(2-chloro-2,2-difluoroethyl)-1-{[2-(hydroxymethyl)-6-(trifluoromethyl)imidazo[2,1-b][1,3,4]thiadiazol-5-yl]methyl}pyrrolidin-2-one], the melting point was 154 °C.

As for `COCc1nn2c(CN3C[C@@H](CC(F)(F)F)CC3=O)c(C(F)(F)F)nc2s1` [Compound 11, (4R)-1-{[2-(methoxymethyl)-6-(trifluoromethyl)imidazo[2,1-b][1,3,4]thiadiazol-5-yl]methyl}-4-(2,2,2-trifluoroethyl)pyrrolidin-2-one], the melting point came out at 72 °C.

`COCc1nn2c(CN3C[C@H](CC(F)(F)F)CC3=O)c(C(F)(F)F)nc2s1` [Compound 12, (4S)-1-{[2-(methoxymethyl)-6-(trifluoromethyl)imidazo[2,1-b][1,3,4]thiadiazol-5-yl]methyl}-4-(2,2,2-trifluoroethyl)pyrrolidin-2-one] returned a melting point of 73 °C.

The values above are taken from US8822508B2, “2-oxo-1-pyrrolidinyl imidazothiadiazole derivatives” (UCB Pharma, S.A., priority 2009, dated 2014).
